Patent publication US20240190944A1, “MODIFIED CELLS FOR THE PRODUCTION OF A RECOMBINANT PRODUCT OF INTEREST” (Genentech, Inc., priority 2021, published 2024)

Experiments:
Format in all cases: cell-based, Chinese Hamster
[1] = test system: PDGFRa; test: Chemical UPR induction in CHO cultures, PDGFRa western blot and qPCR; settings: mAb1-expressing CHO DG44 and CHO-K1 seed train cultures; optimal pH
Text: FIGS. 1A-1G. […] FIG. 1C depicts western blot analysis of two mAb1-expressing host cell lines, CHO DG44 and CHO-K1, treated with chemical UPR inducers: tunicamycin and DTT. FIG. 1D depicts qPCR analysis of PDGFRa mRNA levels in both host cell lines of FIG. 1C treated with tunicamycin and DTT. FIG. 1E depicts western blot analysis of mAb1-expressing CHO-K1 cells treated with tunicamycin to activate the UPR in the presence of UPR pathway-specific inhibitors. […] FIG. 1F depicts qPCR analysis of PDGFRa mRNA levels in CHO-K1 cells treated with tunicamycin in the presence of UPR pathway-specific inhibitors. FIG. 1G depicts western blot analysis of WT and PERK KO empty host CHO-K1 (Clone 9) cell lines treated with tunicamycin and PERK inhibitor.
FIGS. 2A-2E. FIG. 2A depicts western blot analysis of mAb1-expressing CHO-K1 cells treated with thapsigargin to activate the UPR in the presence of different UPR pathway-specific inhibitors. […]
An interesting phenomenon was previously described where activation of UPR in seed train culture, triggered by lower pH conditions in a particular CHO cell line, negatively affected culture growth in production media at target pH (Tung, et al., 2018). When exposed to low pH conditions, high intracellular BiP levels were detected in this cell line that correlated to low growth profiles during production and poor bioprocess outcomes (Tung, et al., 2018). […]

[2] = test system: empty host CHO-K1 cells; test: Growth of empty host CHO-K1 cells in seed train media with PDGFRa inhibitor and/or insulin
Text: (§1) FIGS. 3A-3D. PDGFRa signaling is important for cell growth, e.g., CHO cell growth, and growth factor signaling is intact after PDGFRa inhibition. FIG. 3A is a schematic of PDGFRa and insulin receptor (IR) signaling upstream of protein synthesis, cell cycle progression and cell proliferation. Bolder arrows indicate stronger activation by respective receptors. FIG. 3B depicts empty CHO-K1 host cells VCC and % viability after 4 days in the presence or absence of PDGFRa inhibitor and/or insulin in the seed train media. FIG. 3C depicts western blot analysis of empty host CHO-K1 cells (of FIG. 3B) after 4 days in the presence or absence of PDGFRa inhibitor and/or insulin in the seed train media. FIG. 3D depicts Day 12 relative IVCC, % viability, relative titer and relative Qp of mAb2-expressing CHO-K 1 cells in the presence of PDGFRa inhibitor and/or insulin during production.
FIGS. 4A-4D. FIG. 4A depicts empty host CHO-K1 cells viable cell count (VCC) and % viability after 4 days in increasing PDGFRa inhibitor concentrations in the seed train media. FIG. 4B depicts western blot analysis of empty host CHO-K1 cells after 4 days in increasing PDGFRa inhibitor concentrations in the seed train media. FIG. 4C depicts western blot analysis mAb2-expressing CHO-K 1 cells in production in the presence or absence of PERK inhibitor at 10 μM concentration. […]

[3] = test system: mAb2-expressing CHO-K1 cells; test: Fed-batch production of mAb2-expressing CHO cell line with PDGFRa inhibitor and/or insulin
Text: as §1
Fed-batch production cultures were performed with proprietary chemically defined medium using different vessels (tube-spin and AMBR15) along with bolus feeds on Days 3, 7 and 10 as previously mentioned (Hsu, Aulakh, Traul, & Yuk, 2012). […] Titers were determined using Protein-A affinity chromatography with UV detection. Percent viability and viable cell count were determined using a Vi-Cell XR instrument (Beckman Coulter Item #383721). […]

Tunicamycin
fully functional PDGFRa levels (protein and mRNA) [1]: reduced at both the protein and mRNA levels

COc1cc2ncc(-c3ccccc3)nc2cc1OC [PDGFRa inhibitor, AG-1296]
reduction of cell growth ([2]; 20 μM, 4 days): approximately 50% | cell growth and cell viability in fed-batch production ([3]; PDGFRa inhibition on Day 3): significantly decreased cell growth, without affecting cell viability

insulin
cellular growth of cultures treated with the PDGFRa inhibitor after addition of insulin [2]: partially rescued cellular growth | cell growth inhibition in production culture after addition of insulin ([3]; insulin on Day 3, PDGFRa inhibited): partially rescued the observed cell growth inhibition
